We go through ten compounds from patent US7179597B2, “Genetic diagnosis for QT prolongation related adverse drug reactions” (Georgetown University, priority 2000, dated 2007).

Series [1] relates to CYP3A. The following applies: Table 3; cited from earlier work.
The target in series [2] is CYP2C9 (Homo sapiens, UniProt P11712). The following applies: Table 3; cited from earlier work.
The test system of series [3] is rabbit ventricular myocytes. The following applies: 3.3 μmol/L, about 4–5 min; before drug 341±49 ms; n=16, p>0.05.
For series [4], the target named is L-type ICa (Oryctolagus cuniculus, UniProt P15381). The following applies: 10 μmol/L.
Chain of L-type ICa (P15381 whole entry, other chains not shown): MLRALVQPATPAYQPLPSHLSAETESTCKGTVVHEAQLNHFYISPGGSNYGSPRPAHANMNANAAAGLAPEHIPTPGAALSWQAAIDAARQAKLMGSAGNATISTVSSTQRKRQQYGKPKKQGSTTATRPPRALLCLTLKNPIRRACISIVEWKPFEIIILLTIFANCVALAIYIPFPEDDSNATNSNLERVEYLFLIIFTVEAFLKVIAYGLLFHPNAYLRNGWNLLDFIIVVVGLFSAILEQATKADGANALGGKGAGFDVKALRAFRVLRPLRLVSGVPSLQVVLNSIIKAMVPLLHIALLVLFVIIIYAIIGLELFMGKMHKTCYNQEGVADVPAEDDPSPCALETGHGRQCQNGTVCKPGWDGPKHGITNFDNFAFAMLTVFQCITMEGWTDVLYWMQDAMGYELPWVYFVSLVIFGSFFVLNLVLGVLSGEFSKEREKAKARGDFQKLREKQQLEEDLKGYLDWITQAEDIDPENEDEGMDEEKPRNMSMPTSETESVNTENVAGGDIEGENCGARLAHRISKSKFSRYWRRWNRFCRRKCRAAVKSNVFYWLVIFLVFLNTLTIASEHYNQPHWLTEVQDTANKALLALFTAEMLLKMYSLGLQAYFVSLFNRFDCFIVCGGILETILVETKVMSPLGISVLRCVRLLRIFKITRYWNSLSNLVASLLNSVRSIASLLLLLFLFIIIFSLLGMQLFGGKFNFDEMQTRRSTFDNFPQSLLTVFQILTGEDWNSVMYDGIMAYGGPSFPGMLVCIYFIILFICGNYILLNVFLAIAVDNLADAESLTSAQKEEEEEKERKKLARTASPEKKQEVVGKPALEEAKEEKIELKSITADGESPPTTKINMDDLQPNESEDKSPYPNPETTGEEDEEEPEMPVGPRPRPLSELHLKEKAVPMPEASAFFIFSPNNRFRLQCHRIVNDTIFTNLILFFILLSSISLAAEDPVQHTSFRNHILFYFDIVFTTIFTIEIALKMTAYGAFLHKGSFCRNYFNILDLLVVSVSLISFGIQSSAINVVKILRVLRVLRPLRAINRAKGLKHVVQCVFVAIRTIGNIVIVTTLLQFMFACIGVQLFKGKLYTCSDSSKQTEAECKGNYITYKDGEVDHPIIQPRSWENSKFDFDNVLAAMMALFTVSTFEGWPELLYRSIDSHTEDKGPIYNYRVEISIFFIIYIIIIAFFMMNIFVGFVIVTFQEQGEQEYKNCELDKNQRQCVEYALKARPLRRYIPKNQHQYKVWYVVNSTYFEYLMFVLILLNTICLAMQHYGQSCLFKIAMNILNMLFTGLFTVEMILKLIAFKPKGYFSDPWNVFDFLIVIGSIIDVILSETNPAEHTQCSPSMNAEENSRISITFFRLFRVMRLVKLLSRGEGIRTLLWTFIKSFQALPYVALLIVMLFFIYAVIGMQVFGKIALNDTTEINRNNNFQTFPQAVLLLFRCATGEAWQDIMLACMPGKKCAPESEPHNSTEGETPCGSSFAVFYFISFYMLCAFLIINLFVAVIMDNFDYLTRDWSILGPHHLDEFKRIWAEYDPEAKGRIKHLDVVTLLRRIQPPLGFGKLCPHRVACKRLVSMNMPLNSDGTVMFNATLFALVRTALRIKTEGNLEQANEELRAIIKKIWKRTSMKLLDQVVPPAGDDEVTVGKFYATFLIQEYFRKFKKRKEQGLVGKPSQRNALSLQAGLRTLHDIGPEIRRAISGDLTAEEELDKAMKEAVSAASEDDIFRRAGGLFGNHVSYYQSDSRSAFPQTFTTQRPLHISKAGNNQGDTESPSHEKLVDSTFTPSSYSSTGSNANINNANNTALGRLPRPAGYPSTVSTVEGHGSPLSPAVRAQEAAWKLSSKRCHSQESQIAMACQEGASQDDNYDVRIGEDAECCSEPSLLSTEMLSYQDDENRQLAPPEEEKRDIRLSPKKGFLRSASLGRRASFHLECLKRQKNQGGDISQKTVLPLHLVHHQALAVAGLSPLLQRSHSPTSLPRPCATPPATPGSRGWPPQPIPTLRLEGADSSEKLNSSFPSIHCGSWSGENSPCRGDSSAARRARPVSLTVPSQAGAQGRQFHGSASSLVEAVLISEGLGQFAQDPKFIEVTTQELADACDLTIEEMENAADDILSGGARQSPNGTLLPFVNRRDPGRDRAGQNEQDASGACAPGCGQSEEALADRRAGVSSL
Chain of L-type ICa (P13806 27-1106 partner, other chains not shown): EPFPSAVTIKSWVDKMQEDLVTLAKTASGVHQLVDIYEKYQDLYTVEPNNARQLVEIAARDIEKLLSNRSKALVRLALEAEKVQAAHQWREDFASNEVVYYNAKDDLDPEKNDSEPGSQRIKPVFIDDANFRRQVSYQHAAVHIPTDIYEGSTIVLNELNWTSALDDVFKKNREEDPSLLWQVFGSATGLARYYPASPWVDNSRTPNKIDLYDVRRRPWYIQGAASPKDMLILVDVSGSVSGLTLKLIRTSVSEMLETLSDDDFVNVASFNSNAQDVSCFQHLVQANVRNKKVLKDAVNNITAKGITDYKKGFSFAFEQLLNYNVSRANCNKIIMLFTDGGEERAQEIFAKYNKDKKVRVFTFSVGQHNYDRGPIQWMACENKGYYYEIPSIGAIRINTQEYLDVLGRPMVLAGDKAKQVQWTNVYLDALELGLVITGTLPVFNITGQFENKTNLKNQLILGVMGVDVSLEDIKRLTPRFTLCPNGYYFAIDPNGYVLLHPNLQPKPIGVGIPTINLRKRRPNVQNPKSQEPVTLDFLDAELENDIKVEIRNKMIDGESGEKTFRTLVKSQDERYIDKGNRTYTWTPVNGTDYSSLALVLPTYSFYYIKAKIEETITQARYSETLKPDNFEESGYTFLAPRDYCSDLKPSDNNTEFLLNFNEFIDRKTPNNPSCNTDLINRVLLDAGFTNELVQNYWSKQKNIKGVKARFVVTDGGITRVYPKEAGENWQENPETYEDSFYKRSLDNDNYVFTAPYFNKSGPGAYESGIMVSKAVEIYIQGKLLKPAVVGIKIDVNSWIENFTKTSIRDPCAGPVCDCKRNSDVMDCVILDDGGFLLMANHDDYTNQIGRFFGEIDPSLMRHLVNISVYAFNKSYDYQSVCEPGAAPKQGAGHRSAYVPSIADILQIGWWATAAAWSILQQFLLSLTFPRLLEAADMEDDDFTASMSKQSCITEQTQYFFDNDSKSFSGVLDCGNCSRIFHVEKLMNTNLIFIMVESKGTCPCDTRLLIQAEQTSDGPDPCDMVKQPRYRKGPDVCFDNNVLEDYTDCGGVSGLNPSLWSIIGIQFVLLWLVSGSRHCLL
Series [5] concerns the target T1, IKr (Oryctolagus cuniculus, UniProt Q8WNY2).
T1 sequence (Q8WNY2 1-1161): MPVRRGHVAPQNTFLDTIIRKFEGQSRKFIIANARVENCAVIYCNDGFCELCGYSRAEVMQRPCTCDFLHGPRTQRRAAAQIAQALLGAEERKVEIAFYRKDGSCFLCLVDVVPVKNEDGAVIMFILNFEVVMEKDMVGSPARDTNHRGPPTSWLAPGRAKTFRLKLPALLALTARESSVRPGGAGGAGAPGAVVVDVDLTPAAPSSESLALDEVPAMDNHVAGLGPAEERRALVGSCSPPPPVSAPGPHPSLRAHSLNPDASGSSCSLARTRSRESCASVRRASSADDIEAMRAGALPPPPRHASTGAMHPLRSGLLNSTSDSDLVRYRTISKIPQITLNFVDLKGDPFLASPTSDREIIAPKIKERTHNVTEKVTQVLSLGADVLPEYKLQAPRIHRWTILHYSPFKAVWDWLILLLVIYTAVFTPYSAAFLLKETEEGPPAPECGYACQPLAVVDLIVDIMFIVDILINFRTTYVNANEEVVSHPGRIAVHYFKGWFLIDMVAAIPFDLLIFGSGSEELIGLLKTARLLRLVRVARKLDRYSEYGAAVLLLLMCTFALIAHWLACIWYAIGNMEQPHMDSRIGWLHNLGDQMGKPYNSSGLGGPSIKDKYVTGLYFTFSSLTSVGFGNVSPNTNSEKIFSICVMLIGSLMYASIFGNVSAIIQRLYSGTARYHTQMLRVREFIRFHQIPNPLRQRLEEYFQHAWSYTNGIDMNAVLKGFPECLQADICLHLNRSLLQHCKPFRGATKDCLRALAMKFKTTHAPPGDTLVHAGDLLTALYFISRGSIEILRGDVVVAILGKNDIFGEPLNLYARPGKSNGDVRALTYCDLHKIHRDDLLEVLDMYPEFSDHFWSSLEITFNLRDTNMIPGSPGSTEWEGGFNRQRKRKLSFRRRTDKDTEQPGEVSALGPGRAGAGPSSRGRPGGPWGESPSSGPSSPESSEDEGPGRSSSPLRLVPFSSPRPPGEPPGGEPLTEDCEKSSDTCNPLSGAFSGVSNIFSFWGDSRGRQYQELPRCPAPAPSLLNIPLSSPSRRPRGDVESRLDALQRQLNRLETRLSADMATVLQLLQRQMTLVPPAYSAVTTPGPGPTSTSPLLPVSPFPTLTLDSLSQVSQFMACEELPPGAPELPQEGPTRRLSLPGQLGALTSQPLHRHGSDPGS
As to conditions: superfusion with 1–2.5 μmol/L (Liu et al. 1998); cited from earlier work.

In series [6] the target is T2, CYP1A2 (Homo sapiens, UniProt P05177).
T2 sequence (P05177 1-516): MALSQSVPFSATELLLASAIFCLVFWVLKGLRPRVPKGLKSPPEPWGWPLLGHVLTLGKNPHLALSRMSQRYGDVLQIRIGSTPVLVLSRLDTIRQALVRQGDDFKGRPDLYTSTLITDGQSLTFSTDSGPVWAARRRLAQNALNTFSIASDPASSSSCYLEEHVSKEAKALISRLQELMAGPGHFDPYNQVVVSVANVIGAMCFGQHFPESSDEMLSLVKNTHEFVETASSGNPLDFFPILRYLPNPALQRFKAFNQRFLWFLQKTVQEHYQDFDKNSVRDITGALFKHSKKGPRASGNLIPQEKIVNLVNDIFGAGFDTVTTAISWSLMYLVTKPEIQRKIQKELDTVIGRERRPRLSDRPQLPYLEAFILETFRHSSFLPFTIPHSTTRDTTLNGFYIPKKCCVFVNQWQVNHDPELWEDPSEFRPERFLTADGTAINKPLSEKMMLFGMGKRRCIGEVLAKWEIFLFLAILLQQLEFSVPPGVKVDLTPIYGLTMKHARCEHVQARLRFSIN
The following applies: Table 3; cited from earlier work.

Series [7] has as its target CYP2D6 (Homo sapiens, UniProt P10635). The following applies: Table 3, cited from earlier work.
Series [8] deals with cultured neonatal rat cardiomyocytes. The experiment in a line: Spontaneous beating rate of cultured neonatal rat cardiomyocytes. It counts as cell-based. Details: Reduction in beating rate / Maximum inhibition of beating activity, drug alone: dose or concentration left out as unconfirmed. The text has this:
Delayed rectifier potassium channels are important components of cardiac repolarization. There are two major delayed rectifier potassium currents, IKr (rapid component) and IKs (slow component). Drugs that block these currents, particularly IKr, slow cardiac repolarization and increase the risk of developing potentially fatal cardiac arrhythmias such as Torsades de Pointes. Moreover, mutations in the genes encoding for delayed rectifier potassium channel proteins have been linked to long QT syndrome, a condition seen in patients at high risk for developing Torsades de Pointes cardiac arrhythmias and sudden death. […] Recently, however, a new compound, chromanol 293B, has been reported to be a relatively selective blocker of IKs (Busch et al., Pflug. Arch. 432: 1094–6 (1996)). In the present report, we have tested this compound using spontaneously beating cultures of neonatal rat cardiomyocytes.
In addition to the different electrophysiological properties of IKr versus IKs that have been described by others, these currents can be distinguished pharmacologically (Sanguinetti et al., J. Gen. Physiol. 96: 195–215 (1990)). […] To determine if pharmacological blockade of delayed rectifier potassium currents influences the spontaneous beating rate of cultured neonatal rat cardiomyocytes, a dose-response curve was generated for chromanol 293B.

Series [9] relates to IKs. The following applies: cited from earlier work.
Series [10] has as its system IK1. The experiment in a line: Whole-cell voltage clamp of inward rectifier IK1 in rabbit ventricular myocytes. It is filed as cell-based. As to conditions: 5 μmol/L, 5 minutes.
The subject of series [11] is Ito. The series is described as follows: Whole-cell voltage clamp of transient outward current Ito in rabbit ventricular myocytes. The following applies: 5 μmol/L, 5 minutes superfusion. It counts as cell-based.
For series [12], the target named is CYP2C19 (Homo sapiens, UniProt P33261). As to conditions: Table 3; cited from earlier work.
Chain of CYP2C19 (P33261 whole entry): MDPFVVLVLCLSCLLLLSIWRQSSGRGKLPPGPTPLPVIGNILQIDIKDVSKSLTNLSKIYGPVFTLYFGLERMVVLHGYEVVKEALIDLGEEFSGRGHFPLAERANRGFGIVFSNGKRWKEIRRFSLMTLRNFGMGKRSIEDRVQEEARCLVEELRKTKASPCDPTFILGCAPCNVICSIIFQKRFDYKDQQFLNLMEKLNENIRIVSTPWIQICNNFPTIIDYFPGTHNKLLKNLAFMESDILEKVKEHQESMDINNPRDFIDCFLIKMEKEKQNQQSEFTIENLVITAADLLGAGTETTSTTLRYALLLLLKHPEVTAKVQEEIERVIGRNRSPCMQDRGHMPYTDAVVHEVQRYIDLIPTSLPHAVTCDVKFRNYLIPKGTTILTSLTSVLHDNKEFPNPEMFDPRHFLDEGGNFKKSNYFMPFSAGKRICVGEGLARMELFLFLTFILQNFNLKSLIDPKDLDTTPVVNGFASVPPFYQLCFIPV
The conditions of series [13]: cited from earlier work.
The conditions of series [14]: cited from earlier work. The source holds these as a separate data set.
Series [15] addresses P-gp (Homo sapiens, UniProt P08183). As to conditions: Atadja et al. 1998; cited from earlier work.

Each structure is given as a SMILES string. “Also recorded” adds a separate entry of the source. Like-named read-outs stand apart in the source and are kept apart here.

Chain of CYP2D6 (P10635 whole entry): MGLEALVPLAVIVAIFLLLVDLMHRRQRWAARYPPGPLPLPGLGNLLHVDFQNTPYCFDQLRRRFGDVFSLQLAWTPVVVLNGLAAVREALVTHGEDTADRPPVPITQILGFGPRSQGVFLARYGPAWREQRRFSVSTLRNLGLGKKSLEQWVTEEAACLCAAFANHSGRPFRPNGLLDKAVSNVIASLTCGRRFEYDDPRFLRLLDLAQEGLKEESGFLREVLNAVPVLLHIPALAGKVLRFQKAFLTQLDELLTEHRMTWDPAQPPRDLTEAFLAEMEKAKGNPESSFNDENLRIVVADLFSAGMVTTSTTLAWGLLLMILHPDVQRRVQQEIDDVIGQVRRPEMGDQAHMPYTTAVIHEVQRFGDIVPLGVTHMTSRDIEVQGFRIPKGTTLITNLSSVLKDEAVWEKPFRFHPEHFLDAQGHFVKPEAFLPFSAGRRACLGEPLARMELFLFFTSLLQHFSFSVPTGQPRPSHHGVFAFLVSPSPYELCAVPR
Chain of CYP2C9 (P11712 whole entry): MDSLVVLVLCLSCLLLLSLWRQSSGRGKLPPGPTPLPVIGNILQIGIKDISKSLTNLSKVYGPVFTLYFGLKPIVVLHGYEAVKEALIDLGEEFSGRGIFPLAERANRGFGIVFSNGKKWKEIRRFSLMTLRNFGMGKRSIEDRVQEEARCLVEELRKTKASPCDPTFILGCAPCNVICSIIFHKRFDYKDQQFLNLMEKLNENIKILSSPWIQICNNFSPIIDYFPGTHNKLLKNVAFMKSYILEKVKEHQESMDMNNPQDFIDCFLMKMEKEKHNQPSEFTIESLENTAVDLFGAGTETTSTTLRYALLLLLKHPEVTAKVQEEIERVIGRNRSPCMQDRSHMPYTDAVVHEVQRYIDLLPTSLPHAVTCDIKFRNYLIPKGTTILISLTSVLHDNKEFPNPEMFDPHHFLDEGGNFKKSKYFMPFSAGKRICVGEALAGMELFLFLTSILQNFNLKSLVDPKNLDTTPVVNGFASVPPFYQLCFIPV

As for `OC(Cn1cncn1)(Cn1cncn1)c1ccc(F)cc1F` [Fluconazole], the “Interactions: cytochrome P-450 isoform 3A, substrate or inhibitor” value in [1] is “Inbibilor”. In addition, the “Interactions: cytochrome P-450 isoform 2C9, substrate or inhibitor” value in series [2] was “Inhibitor”.
In the case of `CC/C(=C(\c1ccccc1)c1ccc(OCCN(C)C)cc1)c1ccccc1` [Tamoxifen], the “APD measured at 90% repolarization (APD90) after superfusion” value in [3] turned out to be 332 ± 19 ms. Besides, the “Inhibition of ICa” value in series [4] was “almost complete inhibition; also recorded: marked inhibition”.
Consider `CN(CCOc1ccc(NS(C)(=O)=O)cc1)CCc1ccc(NS(C)(=O)=O)cc1` [dofetilide], for which the “Effect on IKr tail current” value in series [5] was “abolished”.
`O=C(CCCN1CCC(O)(c2ccc(Cl)cc2)CC1)c1ccc(F)cc1` [Haloperidol]: the “Interactions: cytochrome P-450 isoform 1A2, substrate or inhibitor” value in series [6] was “Substrate”. Moreover, in series [1], the “Interactions: cytochrome P-450 isoform 3A, substrate or inhibitor” value is listed as “Substrate”. In addition, the “Interactions: cytochrome P-450 isoform 2D6, substrate or inhibitor” value in [7] (CYP2D6 inhibitor) is given as “Inhibitor”; in series [7] (CYP2D6 substrate), “Substrate”.
`CCS(=O)(=O)N(C)[C@H]1c2cc(C#N)ccc2OC(C)(C)[C@@H]1O` (racemic) [chromanol 293B]: the “Maximum inhibition of beating activity, drug alone” value in series [8] (293B alone) is on record as 50%. Moreover, in [8] (dose-response curve), the “Effect on spontaneous beating rate” value was “dose-dependent decrease in beating rate”. Moreover, the “Reduction in beating rate” value in series [8] (highest drug concentration tested, relative to control) is given as “about 50%”. Also, in [9] (Busch et al. 1996), the Concentrations up to which IKs is selectively blocked was 10 to 30 µM. The Concentration required to achieve complete blockade of IKs in series [9] (guinea pig ventricular myocytes (Busch et al. 1996)) was 100 µM.
As for `Cc1cccc(CCN2CCC(C(=O)c3ccc(NS(C)(=O)=O)cc3)CC2)n1` [E-4031], in series [8] (5–10 mnM E-4031 alone), the “Maximum inhibition of beating activity, drug alone” value came to 50%. For the same compound, the “Effect on IK1 outward (holding) current” value in series [10] (at −40 mV) was “without affecting; also recorded: no effect”. Moreover, the “Effect on IK1 inward current” value in series [10] (recorded at −120 mV) was “little effect”. In addition, the “Effect on transient outward current (Ito)” value in [11] is “no effect; also recorded: without affecting”.
For `CN(C)CCCN1c2ccccc2CCc2ccc(Cl)cc21` [Clomipramine], the “Interactions: cytochrome P-450 isoform 2C19, substrate or inhibitor” value in series [12] is “Substrate”. In addition, the “Interactions: cytochrome P-450 isoform 1A2, substrate or inhibitor” value in series [6] is given as “Substrate”.
Turning to `CNCCC(Oc1ccc(C(F)(F)F)cc1)c1ccccc1` (stereo not shown) [Fluoxetine], in series [12], the “Interactions: cytochrome P-450 isoform 2C19, substrate or inhibitor” value is reported as “Inhibitor”. Moreover, the QT result was “Yes” in series [13] (Table 2, drug labeling) and “Yes” in series [13] (Table 3). In addition, the “Interactions: cytochrome P-450 isoform 3A, substrate or inhibitor” value in series [1] is “Inhibitor”. In addition, the “Interactions: cytochrome P-450 isoform 2C9, substrate or inhibitor” value in [2] was “Substrate”.
Take `CN(C)CCC=C1c2ccccc2CCc2ccccc21` [Amitriptyline]: the TdP entry in series [14] (Table 2, FDA / medical literature) is “Yes”; in series [14] (Table 3), “Yes”. The “Interactions: cytochrome P-450 isoform 2C19, substrate or inhibitor” value in series [12] is listed as “Substrate”. The “Interactions: cytochrome P-450 isoform 1A2, substrate or inhibitor” value in series [6] is recorded as “Substrate”. In addition, the QT result is given as “Yes” in series [13] (Table 2, drug labeling) and “Yes” in series [13] (Table 3). The “Interactions: cytochrome P-450 isoform 2C9, substrate or inhibitor” value in series [2] is on record as “Substrate”. The “Interactions: cytochrome P-450 isoform 2D6, substrate or inhibitor” value in series [7] was “Substrate”.
Take `C/C=C/C[C@@H](C)C(=O)[C@H]1C(=O)N[C@@H](C(C)C)C(=O)N(C)CC(=O)N(C)[C@@H](CC(C)C)C(=O)N[C@@H](C(C)C)C(=O)N(C)[C@@H](CC(C)C)C(=O)N[C@@H](C)C(=O)N[C@H](C)C(=O)N(C)[C@@H](CC(C)C)C(=O)N(C)[C@@H](CC(C)C)C(=O)N(C)[C@@H](C(C)C)C(=O)N1C` [PSC-833]: the “Effect on P-gp” value in series [15] is “potently and specifically inhibits”.
